Measured values reported in ChEMBL document CHEMBL2321873, “1-(4-Phenylpiperazin-1-yl)-2-(1H-pyrazol-1-yl)ethanones as novel CCR1 antagonists” (Bioorg Med Chem Lett, 2013).
The source made the active and inactive calls.

Legend:
[1] = molecular target: C-C chemokine receptor type 2 (Homo sapiens) (UniProt P41597); assay: Binding affinity to CCR2 (unknown origin) at 10 uM by radioligand displacement assay
[2] = molecular target: C-C chemokine receptor type 2 (Homo sapiens) (UniProt P41597); assay: Antagonist activity at CCR2 (unknown origin) assessed as inhibition of calcium flux at 10 uM; format: functional
[3] = molecular target: T1, C-C chemokine receptor type 3 (Homo sapiens) (UniProt P51677); assay: Antagonist activity at CCR3 (unknown origin) assessed as inhibition of chemotaxis at 10 uM
T1 sequence (whole entry): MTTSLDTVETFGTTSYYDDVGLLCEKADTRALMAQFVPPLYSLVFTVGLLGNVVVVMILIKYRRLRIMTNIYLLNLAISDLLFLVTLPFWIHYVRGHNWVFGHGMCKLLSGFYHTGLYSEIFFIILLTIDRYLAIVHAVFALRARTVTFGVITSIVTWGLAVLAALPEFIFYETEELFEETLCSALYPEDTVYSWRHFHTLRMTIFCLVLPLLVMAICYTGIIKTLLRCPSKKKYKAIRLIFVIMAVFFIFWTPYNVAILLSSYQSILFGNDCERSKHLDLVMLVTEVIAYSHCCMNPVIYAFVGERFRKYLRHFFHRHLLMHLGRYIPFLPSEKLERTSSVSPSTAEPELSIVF

[4] = molecular target: T2, C-C chemokine receptor type 4 (Homo sapiens) (UniProt P51679); assay: Antagonist activity at CCR4 (unknown origin) assessed as inhibition of chemotaxis at 10 uM
T2 sequence (whole entry): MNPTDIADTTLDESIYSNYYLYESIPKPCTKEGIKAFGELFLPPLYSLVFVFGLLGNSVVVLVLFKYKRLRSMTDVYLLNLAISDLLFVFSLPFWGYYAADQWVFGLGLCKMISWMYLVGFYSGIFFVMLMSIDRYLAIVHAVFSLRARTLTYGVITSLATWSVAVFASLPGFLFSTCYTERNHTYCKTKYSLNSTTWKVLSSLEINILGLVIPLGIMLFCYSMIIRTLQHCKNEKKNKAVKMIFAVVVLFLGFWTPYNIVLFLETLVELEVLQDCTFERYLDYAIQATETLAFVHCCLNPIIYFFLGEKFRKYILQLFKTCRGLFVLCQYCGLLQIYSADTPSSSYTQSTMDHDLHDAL

[5] = molecular target: C-C chemokine receptor type 8 (Homo sapiens) (UniProt P51685); assay: Antagonist activity at CCR8 (unknown origin) assessed as inhibition of chemotaxis at 10 uM
[6] = molecular target: T3, C-X-C chemokine receptor type 2 (Homo sapiens) (UniProt P25025); assay: Antagonist activity at CXCR2 (unknown origin) assessed as inhibition of calcium flux at 10 uM; format: functional
T3 sequence (whole entry): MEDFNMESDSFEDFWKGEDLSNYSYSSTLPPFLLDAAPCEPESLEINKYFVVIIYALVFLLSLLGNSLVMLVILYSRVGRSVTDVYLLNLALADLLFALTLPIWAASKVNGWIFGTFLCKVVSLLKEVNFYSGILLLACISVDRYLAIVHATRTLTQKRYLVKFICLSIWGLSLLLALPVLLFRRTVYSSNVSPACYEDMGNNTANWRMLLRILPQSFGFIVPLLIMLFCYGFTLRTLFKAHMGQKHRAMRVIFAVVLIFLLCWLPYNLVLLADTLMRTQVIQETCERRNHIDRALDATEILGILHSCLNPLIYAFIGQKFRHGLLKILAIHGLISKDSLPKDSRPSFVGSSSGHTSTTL

[7] = molecular target: C-X-C chemokine receptor type 6 (Homo sapiens) (UniProt O00574); assay: Binding affinity to CXCR6 (unknown origin) at 10 uM by radioligand displacement assay
[8] = molecular target: T4, Atypical chemokine receptor 1 (Homo sapiens) (UniProt Q16570); assay: Binding affinity to Duffy (unknown origin) at 10 uM by radioligand displacement assay
T4 sequence (whole entry): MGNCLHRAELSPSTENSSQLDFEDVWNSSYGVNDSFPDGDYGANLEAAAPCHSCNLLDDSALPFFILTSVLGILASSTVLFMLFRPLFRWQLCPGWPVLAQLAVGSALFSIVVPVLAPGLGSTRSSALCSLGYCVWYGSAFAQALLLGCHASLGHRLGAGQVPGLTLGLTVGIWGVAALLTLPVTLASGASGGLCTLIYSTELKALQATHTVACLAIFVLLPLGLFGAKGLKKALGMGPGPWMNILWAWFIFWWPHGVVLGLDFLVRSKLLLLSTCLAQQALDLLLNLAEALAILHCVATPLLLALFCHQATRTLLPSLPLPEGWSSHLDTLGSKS

[9] = tested on: Rattus norvegicus; assay: Toxicity in Sprague-Dawley rat assessed as necropsy at 70 to 360 mg/kg, po after 7 days; format: organism-based; set-up: dose 70-360 mg/kg, route oral; settings: in vivo, 168 h
[10] = molecular target: T5, C-C chemokine receptor type 7 (Homo sapiens) (UniProt P32248); assay: Antagonist activity at CCR7 (unknown origin) assessed as inhibition of calcium flux at 10 uM; format: functional
T5 sequence (whole entry): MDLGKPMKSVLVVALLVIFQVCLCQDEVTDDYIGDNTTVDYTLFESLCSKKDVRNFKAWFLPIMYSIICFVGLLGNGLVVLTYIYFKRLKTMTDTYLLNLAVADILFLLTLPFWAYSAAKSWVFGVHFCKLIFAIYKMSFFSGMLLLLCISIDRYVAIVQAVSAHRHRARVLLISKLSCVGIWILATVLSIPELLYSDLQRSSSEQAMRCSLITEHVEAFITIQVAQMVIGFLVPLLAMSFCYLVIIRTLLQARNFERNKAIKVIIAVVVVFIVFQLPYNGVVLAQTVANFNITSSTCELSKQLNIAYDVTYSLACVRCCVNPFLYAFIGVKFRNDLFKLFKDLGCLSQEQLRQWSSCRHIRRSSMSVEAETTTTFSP

[11] = tested on: Salmonella typhimurium; assay: Genotoxicity in Salmonella typhimurium by Ames test in presence of S9 fractions; format: toxicity, organism-based, S9 Fraction; settings: salmonella enterica subsp. enterica serovar typhimurium
[12] = molecular target: T6, C-C chemokine receptor type 6 (Homo sapiens) (UniProt P51684); assay: Binding affinity to CCR6 (unknown origin) at 10 uM by radioligand displacement assay
T6 sequence (whole entry): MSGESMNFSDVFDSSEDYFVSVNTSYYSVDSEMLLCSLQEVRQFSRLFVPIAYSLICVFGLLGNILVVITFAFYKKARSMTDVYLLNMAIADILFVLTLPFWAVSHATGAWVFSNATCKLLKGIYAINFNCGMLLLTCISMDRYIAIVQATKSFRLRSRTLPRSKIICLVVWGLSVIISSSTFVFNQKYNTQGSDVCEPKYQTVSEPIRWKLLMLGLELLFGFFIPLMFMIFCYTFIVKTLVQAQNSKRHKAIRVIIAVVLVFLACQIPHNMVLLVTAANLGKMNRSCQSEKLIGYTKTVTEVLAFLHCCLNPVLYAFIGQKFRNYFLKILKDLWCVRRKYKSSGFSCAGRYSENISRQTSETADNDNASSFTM

[13] = molecular target: T1, C-C chemokine receptor type 3 (Homo sapiens); assay: Binding affinity to CCR3 (unknown origin) at 10 uM by radioligand displacement assay
[14] = Plasma clearance in Sprague-Dawley rat at 1 mg/kg, iv; format: ADME, organism-based; set-up: dose 1 mg/kg, route intravenous
[15] = molecular target: Cytochrome P450 2C19 (Homo sapiens, UniProt P33261); assay: Inhibition of CYP2C19 (unknown origin); format: ADME
Sequence of Cytochrome P450 2C19 (P33261 whole entry): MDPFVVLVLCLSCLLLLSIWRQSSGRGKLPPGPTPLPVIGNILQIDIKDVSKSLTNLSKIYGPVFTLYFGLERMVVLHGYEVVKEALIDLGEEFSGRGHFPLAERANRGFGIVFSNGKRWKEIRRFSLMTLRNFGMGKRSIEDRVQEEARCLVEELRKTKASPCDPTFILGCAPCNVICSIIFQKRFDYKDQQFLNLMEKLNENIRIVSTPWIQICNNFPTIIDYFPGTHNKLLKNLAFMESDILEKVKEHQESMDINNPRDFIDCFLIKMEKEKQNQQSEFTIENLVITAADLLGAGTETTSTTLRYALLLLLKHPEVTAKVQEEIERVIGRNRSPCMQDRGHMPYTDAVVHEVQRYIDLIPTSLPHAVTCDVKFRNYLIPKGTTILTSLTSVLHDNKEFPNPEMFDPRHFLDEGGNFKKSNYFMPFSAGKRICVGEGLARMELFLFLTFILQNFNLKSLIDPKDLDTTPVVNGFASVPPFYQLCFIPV

Sequence of C-C chemokine receptor type 2 (Homo sapiens) (P41597 whole entry, looked up): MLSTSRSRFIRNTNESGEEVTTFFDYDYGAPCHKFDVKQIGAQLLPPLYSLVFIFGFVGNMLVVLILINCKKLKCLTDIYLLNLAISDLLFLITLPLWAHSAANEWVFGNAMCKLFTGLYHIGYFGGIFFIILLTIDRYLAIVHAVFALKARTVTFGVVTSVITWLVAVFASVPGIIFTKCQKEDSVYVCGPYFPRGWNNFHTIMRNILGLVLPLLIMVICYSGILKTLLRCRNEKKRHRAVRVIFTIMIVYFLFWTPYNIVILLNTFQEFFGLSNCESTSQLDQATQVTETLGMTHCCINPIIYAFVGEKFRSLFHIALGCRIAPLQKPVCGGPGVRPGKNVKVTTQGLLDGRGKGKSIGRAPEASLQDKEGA
Sequence of C-X-C chemokine receptor type 6 (Homo sapiens) (O00574 whole entry, looked up): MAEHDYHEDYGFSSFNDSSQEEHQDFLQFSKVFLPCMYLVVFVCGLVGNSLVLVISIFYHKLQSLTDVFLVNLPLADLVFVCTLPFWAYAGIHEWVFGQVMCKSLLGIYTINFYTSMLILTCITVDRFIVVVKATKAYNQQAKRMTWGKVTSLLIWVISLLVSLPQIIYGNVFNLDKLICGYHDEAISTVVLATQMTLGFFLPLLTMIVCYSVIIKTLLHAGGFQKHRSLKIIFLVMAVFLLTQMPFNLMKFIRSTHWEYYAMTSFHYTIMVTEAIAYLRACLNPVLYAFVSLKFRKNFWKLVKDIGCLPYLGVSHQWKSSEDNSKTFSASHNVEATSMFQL
Sequence of C-C chemokine receptor type 8 (Homo sapiens) (P51685 whole entry): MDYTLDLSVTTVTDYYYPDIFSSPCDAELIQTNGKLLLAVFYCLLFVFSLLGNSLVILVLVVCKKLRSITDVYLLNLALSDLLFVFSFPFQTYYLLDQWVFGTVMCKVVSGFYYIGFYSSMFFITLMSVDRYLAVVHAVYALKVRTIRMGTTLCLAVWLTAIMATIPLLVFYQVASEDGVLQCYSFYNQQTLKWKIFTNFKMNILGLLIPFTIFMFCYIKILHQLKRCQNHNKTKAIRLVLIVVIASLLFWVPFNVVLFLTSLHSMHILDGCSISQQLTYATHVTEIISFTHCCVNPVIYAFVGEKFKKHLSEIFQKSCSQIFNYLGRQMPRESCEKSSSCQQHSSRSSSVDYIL

COc1cc(N2CCN(C(=O)Cn3nc(C(F)(F)F)c(Cl)c3C)CC2)ccc1Cl
Non-toxic: Activity [9] | Activity [11]
6 µM: IC50 [15]
inactive: Activity [1] | inhibition [2] | inhibition [3] | inhibition [4] | inhibition [5] | inhibition [6] | Activity [7] | Activity [8] | inhibition [10] | Activity [12] | Activity [13]
20 mL/min/kg: clearance [14]
